From patent US11446347B2, “Antithrombotic composition comprising Angelica gigas Nakai extract” (Astrogenesis Co., Ltd., priority 2018, dated 2022)

System: thrombus-induced mouse model
Assay: In-vivo antithrombotic test, Rota-rod, collagen/epinephrine thrombus-induced mouse model
Design: species or system ICR mice
Conditions: thrombus induced 90 min after drug, Rota-rod 24 rpm after 15 min
Description: As for the experimental animals, 5-week-old female ICR mice provided by YoungBio were stabilized in an animal laboratory at a temperature of 24±1° C., a humidity of 55±5% in a 12-hour day-night cycle for 1 week and used in the experiments.
The change in behavioral capacity was evaluated for the prepared thrombus-induced mouse model using Rota-rod, and the antithrombotic effect of the Angelica gigas Nakai extract was evaluated. The thrombus-induced mouse model was prepared as follows. A 6-week-old ICR mouse (about 20 to 25 g) stabilized as an experimental mouse was prepared, and subjected to Rota-rod training, and the reference value was created three times, and the rotation speed was set to 24 rpm, and objects withstanding without falling at a rotation speed of 300 or more were selected. […] After 15 minutes, Rota-rod testing was repeated 3 times (rotation speed: 24 rpm), and the difference in athletic performance was analyzed by the following Equation: Protection rate (%)=[(Total number of individuals−Number of killed or paralyzed individuals)/Total number of individuals]×100
Number of killed or paralyzed individuals: The number of individuals who fell at a rotation speed of 24 rpm or less in Rota-rod testing at a rotation speed of 150 or less)

Structure (SMILES) | Number of killed or paralyzed individuals / Number of total individuals (dose 100 mg/kg) | Protection (%) (dose 100 mg/kg) | Number of killed or paralyzed individuals / Number of total individuals (dose 10 mg/kg) | Protection (%) (dose 10 mg/kg)
CC(=O)Oc1ccccc1C(=O)O [ASA (Aspirin), acetylsalicylic acid] | 11/20 | 45% | – | –
CC(C)=CC(=O)O[C@H]1Cc2cc3ccc(=O)oc3cc2OC1(C)C [Decursin, decursin] | – | – | 11/18 | 38.9%
CC1(C)Oc2cc3oc(=O)ccc3cc2C[C@@H]1O [Decursinol, decursinol] | – | – | 12/19 | 36.8%
